Laboratory results reported in PubChem BioAssay (NCI).
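Grown in 96-well plates, cells were treated for 48 hours with each compound at five concentrations. Insufficient inhibition: endpoint recorded as highest concentration tested. Definition used: TGI = concentration required for complete inhibition of growth.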

Assays:
Assay in all cases: NCI tumour cell line growth inhibition, 48 h
SK-OV-3 ovarian = tested on: SK-OV-3 ovarian
OVCAR-4 ovarian = tested on: OVCAR-4 ovarian
UO-31 renal = tested on: UO-31 renal
HCC-2998 colon = tested on: HCC-2998 colon
DU-145 prostate = tested on: DU-145 prostate
OVCAR-3 ovarian = tested on: OVCAR-3 ovarian
UACC-62 melanoma = tested on: UACC-62 melanoma
SN12C renal = tested on: SN12C renal
NCI-H23 lung = tested on: NCI-H23 lung
SNB-75 CNS = tested on: SNB-75 CNS
K-562 leukemia = tested on: K-562 leukemia
HCT-15 colon = tested on: HCT-15 colon
MDA-MB-435 = tested on: MDA-MB-435
RPMI-8226 leukemia = tested on: RPMI-8226 leukemia
HT29 colon = tested on: HT29 colon
UACC-257 melanoma = tested on: UACC-257 melanoma
HL-60(TB) leukemia = tested on: HL-60(TB) leukemia
BT-549 breast = tested on: BT-549 breast
IGROV1 ovarian = tested on: IGROV1 ovarian
HCT-116 colon = tested on: HCT-116 colon
HOP-92 NSCLC = tested on: HOP-92 NSCLC
NCI-H522 lung = tested on: NCI-H522 lung
T-47D breast = tested on: T-47D breast
TK-10 renal = tested on: TK-10 renal
786-0 renal = tested on: 786-0 renal
SW-620 colon = tested on: SW-620 colon
U251 CNS = tested on: U251 CNS
SF-539 CNS = tested on: SF-539 CNS
CCRF-CEM leukemia = tested on: CCRF-CEM leukemia
A549 NSCLC = tested on: A549 NSCLC
NCI-H226 lung = tested on: NCI-H226 lung
SF-268 CNS = tested on: SF-268 CNS
EKVX NSCLC = tested on: EKVX NSCLC
HOP-62 NSCLC = tested on: HOP-62 NSCLC
SK-MEL-2 melanoma = tested on: SK-MEL-2 melanoma
NCI/ADR-RES ovarian = tested on: NCI/ADR-RES ovarian
HS 578T breast = tested on: HS 578T breast
MCF7 breast = tested on: MCF7 breast
OVCAR-5 ovarian = tested on: OVCAR-5 ovarian
COLO 205 colon = tested on: COLO 205 colon
SR leukemia = tested on: SR leukemia
A498 renal = tested on: A498 renal
SK-MEL-28 melanoma = tested on: SK-MEL-28 melanoma
SK-MEL-5 melanoma = tested on: SK-MEL-5 melanoma
CAKI-1 renal = tested on: CAKI-1 renal
M14 melanoma = tested on: M14 melanoma
SF-295 CNS = tested on: SF-295 CNS
RXF 393 renal = tested on: RXF 393 renal
KM12 colon = tested on: KM12 colon
LOX IMVI melanoma = tested on: LOX IMVI melanoma
PC-3 prostate = tested on: PC-3 prostate
ACHN renal = tested on: ACHN renal
MALME-3M melanoma = tested on: MALME-3M melanoma
SNB-19 CNS = tested on: SNB-19 CNS
NCI-H460 lung = tested on: NCI-H460 lung
MDA-MB-231 breast = tested on: MDA-MB-231 breast
MOLT-4 leukemia = tested on: MOLT-4 leukemia
OVCAR-8 ovarian = tested on: OVCAR-8 ovarian
MDA-N = tested on: MDA-N

O=c1oc2ccc3ccccc3c2cc1-c1nc2ccccc2s1
TGI (SK-OV-3 ovarian): > 100 µM | TGI (OVCAR-4 ovarian): > 100 µM | TGI (UO-31 renal): > 100 µM | TGI (HCC-2998 colon): > 100 µM | TGI (DU-145 prostate): > 100 µM | TGI (OVCAR-3 ovarian): > 100 µM | TGI (UACC-62 melanoma): > 100 µM | TGI (SN12C renal): > 100 µM | TGI (NCI-H23 lung): > 100 µM | TGI (SNB-75 CNS): > 100 µM | TGI (K-562 leukemia): > 77.6 µM | TGI (HCT-15 colon): > 100 µM | TGI (MDA-MB-435): > 100 µM | TGI (RPMI-8226 leukemia): > 32.8 µM | TGI (HT29 colon): > 100 µM | TGI (UACC-257 melanoma): > 100 µM | TGI (HL-60(TB) leukemia): > 100 µM | TGI (BT-549 breast): > 100 µM | TGI (IGROV1 ovarian): > 100 µM | TGI (HCT-116 colon): > 100 µM | TGI (HOP-92 NSCLC): > 100 µM | TGI (NCI-H522 lung): > 100 µM | TGI (T-47D breast): > 100 µM | TGI (TK-10 renal): > 100 µM | TGI (786-0 renal): > 100 µM | TGI (SW-620 colon): > 100 µM | TGI (U251 CNS): > 100 µM | TGI (SF-539 CNS): > 100 µM | TGI (CCRF-CEM leukemia): > 100 µM | TGI (A549 NSCLC): > 100 µM | TGI (NCI-H226 lung): > 100 µM | TGI (SF-268 CNS): > 100 µM | TGI (EKVX NSCLC): > 100 µM | TGI (HOP-62 NSCLC): > 100 µM | TGI (SK-MEL-2 melanoma): > 100 µM | TGI (NCI/ADR-RES ovarian): > 100 µM | TGI (HS 578T breast): > 100 µM | TGI (MCF7 breast): > 24.4 µM | TGI (OVCAR-5 ovarian): > 100 µM | TGI (COLO 205 colon): > 100 µM | TGI (SR leukemia): > 21.5 µM | TGI (A498 renal): > 100 µM | TGI (SK-MEL-28 melanoma): > 100 µM | TGI (SK-MEL-5 melanoma): > 100 µM | TGI (CAKI-1 renal): > 100 µM | TGI (M14 melanoma): > 100 µM | TGI (SF-295 CNS): > 100 µM | TGI (RXF 393 renal): > 100 µM | TGI (KM12 colon): > 100 µM | TGI (LOX IMVI melanoma): > 100 µM | TGI (PC-3 prostate): > 100 µM | TGI (ACHN renal): > 100 µM | TGI (MALME-3M melanoma): > 100 µM | TGI (SNB-19 CNS): > 26.9 µM | TGI (NCI-H460 lung): > 100 µM | TGI (MDA-MB-231 breast): > 100 µM | TGI (MOLT-4 leukemia): > 21.6 µM | TGI (OVCAR-8 ovarian): > 100 µM | TGI (MDA-N): > 100 µM

COc1cc(OC)cc(Oc2nc3ccccc3nc2C(F)(F)F)c1
TGI (SK-OV-3 ovarian): > 100 µM | TGI (OVCAR-4 ovarian): > 100 µM | TGI (UO-31 renal): > 100 µM | TGI (HCC-2998 colon): > 100 µM | TGI (DU-145 prostate): > 100 µM | TGI (OVCAR-3 ovarian): > 100 µM | TGI (UACC-62 melanoma): > 100 µM | TGI (SN12C renal): > 100 µM | TGI (NCI-H23 lung): > 100 µM | TGI (SNB-75 CNS): > 100 µM | TGI (K-562 leukemia): > 100 µM | TGI (HCT-15 colon): > 100 µM | TGI (MDA-MB-435): > 100 µM | TGI (RPMI-8226 leukemia): > 100 µM | TGI (HT29 colon): > 100 µM | TGI (UACC-257 melanoma): > 100 µM | TGI (HL-60(TB) leukemia): > 100 µM | TGI (BT-549 breast): > 100 µM | TGI (IGROV1 ovarian): > 100 µM | TGI (HCT-116 colon): > 100 µM | TGI (HOP-92 NSCLC): > 100 µM | TGI (NCI-H522 lung): > 100 µM | TGI (T-47D breast): > 100 µM | TGI (TK-10 renal): > 100 µM | TGI (786-0 renal): > 100 µM | TGI (SW-620 colon): > 100 µM | TGI (U251 CNS): > 100 µM | TGI (SF-539 CNS): > 100 µM | TGI (CCRF-CEM leukemia): > 100 µM | TGI (A549 NSCLC): > 100 µM | TGI (NCI-H226 lung): > 100 µM | TGI (SF-268 CNS): > 100 µM | TGI (EKVX NSCLC): > 100 µM | TGI (HOP-62 NSCLC): > 100 µM | TGI (SK-MEL-2 melanoma): > 100 µM | TGI (NCI/ADR-RES ovarian): > 100 µM | TGI (HS 578T breast): > 100 µM | TGI (MCF7 breast): > 100 µM | TGI (OVCAR-5 ovarian): > 100 µM | TGI (COLO 205 colon): > 100 µM | TGI (SR leukemia): > 100 µM | TGI (A498 renal): 73.9 µM | TGI (SK-MEL-28 melanoma): > 100 µM | TGI (SK-MEL-5 melanoma): > 100 µM | TGI (CAKI-1 renal): > 100 µM | TGI (M14 melanoma): > 100 µM | TGI (SF-295 CNS): > 100 µM | TGI (RXF 393 renal): > 100 µM | TGI (KM12 colon): > 100 µM | TGI (LOX IMVI melanoma): > 100 µM | TGI (PC-3 prostate): > 100 µM | TGI (ACHN renal): > 100 µM | TGI (MALME-3M melanoma): > 100 µM | TGI (SNB-19 CNS): > 100 µM | TGI (NCI-H460 lung): > 100 µM | TGI (MDA-MB-231 breast): 94.9 µM | TGI (MOLT-4 leukemia): > 100 µM | TGI (OVCAR-8 ovarian): > 100 µM | TGI (MDA-N): > 100 µM
